The source of these data is PubChem BioAssay AID179 (DTP/NCI, 2004).

The test deals with CEM cells HIV-1 protection, formazan growth assay. The test can be described thus: NCI AIDS Antiviral Assay. Conditions: for IC50: measured here: growth of uninfected CEM cells. An outline of the steps: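 Protection of CEM cells against HIV-1 measured as cell growth via soluble formazan read-out, with five concentrations tested on both infected and uninfected cells; failure to protect may reflect toxicity.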

Active and inactive are the calls of the source.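 How the source made its calls: active means compounds giving half or more protection of infected cells from virus-caused growth loss, again on retest; inactive means the rest.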

Turning to `O=C1NC(=O)C(=Cc2ccc([N+](=O)[O-])cc2)C(=O)N1`, the EC50 is greater than 138 µM and the IC50 is greater than 138 µM.
For the compound `CCCN=c1ssc(=O)n1CCC`, the EC50 is greater than 200 µM and the IC50 is 11.2 µM.
Taken in the same sequence, the figures for `O=C(Nc1ccc(Cl)cc1)NS(=O)(=O)c1coc2cc(F)ccc2c1=O` were greater than 200 µM and 63.1 µM.
Taken in the same sequence, the figures for `O=C(NN1CCOC1=O)OCCCl` were greater than 200 µM and greater than 200 µM.
For `CCCCc1c2c(nc3c1CCc1cc4cc5c(nc4nc1-3)-c1nc3c(c(CCCC)c1CC5)CCCC3)CCCC2`, the EC50 is greater than 0.977 µM and the IC50 was greater than 0.977 µM.
As to `Nc1nc2c(ncn2C2OC(CO)CC2F)c(=O)[nH]1` (centres undefined), the result was active.
As to `CCOC(=O)C1(C(=O)OCC)COS(=O)OC1`, the EC50 is greater than 186 µM and the IC50 was determined as 97.7 µM.
Taken in the same sequence, the figures for `COC(=O)/C=C/C(=O)/C=C/COC(=O)c1ccccc1` were greater than 95.5 µM and 61.7 µM.
Taken in the same sequence, the figures for `CCc1n[nH]c(=O)n1NC(=O)CCCC(=O)O` were greater than 200 µM and greater than 200 µM.
With `CC[C@@]1(OC(=O)CN(C)C)C(=O)OCc2c1cc1n(c2=O)Cc2cc3ccccc3nc2-1`, the EC50 is greater than 10 µM and the IC50 worked out at 0.0229 µM.
Taken in the same sequence, the figures for `Cc1c(NC(=S)NN)c(=O)n(-c2ccccc2)n1C` were greater than 200 µM and greater than 200 µM.
Taken in the same sequence, the figures for `O=C1c2ccccc2-c2nc3ccccc3nc21` were greater than 6.17 µM and greater than 6.17 µM.
Taken in the same sequence, the figures for `O=C(c1nc2ccc([N+](=O)[O-])cc2[nH]c1=O)C(O)c1ccc([N+](=O)[O-])cc1` (centres undefined) were 58.9 µM and 110 µM.
Consider `c1ccc(CN2CCC3(CC2)SSC2(CCN(Cc4ccccc4)CC2)S3)cc1`, for which the EC50 was greater than 100 µM and the IC50 stood at 87.1 µM.
Turning to `Cc1ccc(N(CC(=O)O)S(=O)(=O)c2ccccc2)cc1`, the result was inactive.
For the compound `CCC(=O)OC1CCC2C3CCC(=O)OC3C(C)(CCC(=O)O)CC12C` (centres undefined), the EC50 was greater than 200 µM and the IC50 turned out to be 1.91 µM.
Taken in the same sequence, the figures for `S=C(Oc1ccccc1)SSC(=S)Oc1ccccc1` were greater than 200 µM and 19.1 µM.
Taken in the same sequence, the figures for `COC(=O)c1ccc(CSc2ccccc2C(=O)OC)cc1` were greater than 22.9 µM and 19.1 µM.
Taken in the same sequence, the figures for `Fc1c(F)c(F)c(CSc2nc3ccccc3[nH]2)c(F)c1F` were greater than 200 µM and 145 µM.
Regarding `CC(C)CCC1(CCSC#N)C(=O)NC(=O)NC1=O`, the EC50 is greater than 200 µM and the IC50 was 37.2 µM.
Taken in the same sequence, the figures for `CCN(CC)c1ccc(N=Nc2ccc(-c3nc4ccc[n+](C)c4o3)cc2)cc1` were greater than 2.04 µM and greater than 2.04 µM.
Taken in the same sequence, the figures for `CCOc1ccc(/C=N\N2C(=O)c3ccccc3C2=O)cc1` were greater than 123 µM and greater than 123 µM.
Taken in the same sequence, the figures for `CC1C(=O)OC2C=CC3(C)C(=O)OC4OC5(c6ccoc6)CC1(O)C2(C)C43O5` (centres undefined) were greater than 200 µM and greater than 200 µM.
With `CC(C)N1C(=O)NC2C1NC(=O)N2C(C)C` (centres undefined) (tested in a mixture with another compound), the EC50 was greater than 200 µM and the IC50 is greater than 200 µM.
For the compound `N#C/C(=C/c1ccccc1)c1ccccc1`, the EC50 is greater than 200 µM and the IC50 came out at 39.8 µM.
Taken in the same sequence, the figures for `O=C1/C(=C\c2cccc(Oc3ccccc3)c2)S(=O)(=O)C(c2ccccc2)N1c1cccc([N+](=O)[O-])c1` (centres undefined) were greater than 200 µM and 9.55 µM.
In the case of `O=c1[nH]c2cc3[nH]c4ncccc4c(=O)c3cc2[nH]1`, the EC50 was 148 µM and the IC50 is greater than 200 µM.
With `COc1cccc(N2CCc3c(C)c(C#N)c4nc5ccccc5n4c32)c1`, the EC50 is greater than 100 µM and the IC50 was greater than 100 µM.
For the compound `O=c1c(Nc2ccccc2)cn(CCOc2ccc(Cl)cc2)c(=O)n1CCOc1ccc(Cl)cc1`, the EC50 is greater than 200 µM and the IC50 came to 145 µM.
For the compound `S=c1[nH]nc2ccccn12`, the EC50 was greater than 200 µM and the IC50 is greater than 200 µM.
Consider `CC(C)=CCN1Cc2cccc([N+](=O)[O-])c2NC[C@@H]1C`, for which the EC50 was greater than 85.1 µM and the IC50 is greater than 85.1 µM.
Regarding `CCOC(=O)C(=Cc1cccc([N+](=O)[O-])c1)C(=O)OCC`, the EC50 is greater than 89.1 µM and the IC50 was determined as 8.91 µM.
Taken in the same sequence, the figures for `CSC1=C(C(=O)Nc2ccccc2)C(N)=NC1=O` were greater than 200 µM and 141 µM.
Taken in the same sequence, the figures for `O=C1NCCCC12CCCNC2=O` were greater than 20.9 µM and greater than 20.9 µM.
For the compound `CCn1c(=O)c(C(=O)O)c(Cl)c2cc3c(cc21)OCO3`, the result was inactive.
As for `N#C/C(=C\c1ccc(Cl)cc1)c1ccccc1`, the EC50 is greater than 200 µM and the IC50 stood at 32.4 µM.
Taken in the same sequence, the figures for `CCN(CC)c1c(-c2c(OC(C)C)c(=O)c2=O)c(=O)n2ccsc2c1OC(C)=O` were greater than 200 µM and 141 µM.
`Cn1c2ccccc2c(=O)c2c(O)cc3c(c21)CC(C1(C)CO1)O3` (centres undefined): the EC50 is greater than 6.17 µM and the IC50 amounted to 0.209 µM.
Taken in the same sequence, the figures for `O/N=C1/C2CC3CC1(c1ccccc1)CC(/C3=N/O)/C2=N\O` (centres undefined) were greater than 200 µM and greater than 200 µM.
Taken in the same sequence, the figures for `N/N=C(\CC1OC(=O)c2ccccc21)c1ccco1` (centres undefined) were greater than 977 µM and 617 µM.
Taken in the same sequence, the figures for `O=C(/C=C/c1c(O)ccc2ccccc12)c1ccccc1Cl` were greater than 56.2 µM and 28.2 µM.
As for `Cc1cn(C2CC(O)C(CN=[N+]=[N-])O2)c(=O)[nH]c1=O` (centres undefined), the EC50 was greater than 933 µM and the IC50 is greater than 933 µM.
Consider `N#CC(C#N)=Cc1cc(Cl)ccc1O`, for which the EC50 is greater than 200 µM and the IC50 stood at 29.5 µM.
Consider `CC(C)(CN1CCCCC1)C(=O)/C=C/c1ccc(Cl)cc1`, for which the EC50 is greater than 36.3 µM and the IC50 amounted to 7.94 µM.
Taken in the same sequence, the figures for `Nc1nc(N)c(N=O)c(Nc2ccc(O)cc2)n1` were greater than 200 µM and 170 µM.
Turning to `C[Si](C)(C)O[C@@H]1CCCC1N` (some centres undefined), the result was inactive.
On to `O=C(NCCNCCCNC(=O)c1cc(-c2ccccc2)nc2ccccc12)c1cccc(O)c1O`, for which the EC50 is greater than 200 µM and the IC50 turned out to be 3.24 µM.
`CC[S+](C)c1ccc(-c2c3nc(c(-c4ccc([S+](C)CC)cc4)c4ccc([nH]4)c(-c4ccc([S+](C)CC)cc4)c4nc(c(-c5ccc([S+](C)CC)cc5)c5ccc2[nH]5)C=C4)C=C3)cc1` (centres undefined): the EC50 is 4.79 µM and the IC50 is 13.2 µM.
Taken in the same sequence, the figures for `O=C(/C=C/c1ccccc1)NC1C=Nc2ccccc2NC1=O` (centres undefined) were 148 µM and greater than 200 µM.
With `C=C[C@@H](C)[C@]1(C(=O)OC)CCCC12OCCO2`, the EC50 was greater than 282 µM and the IC50 was greater than 282 µM.
As to `CCOP(=O)(OCC)OC1c2[nH]ccc2-c2cc(C(=O)OC)[nH]c2C1OC` (centres undefined), the EC50 is greater than 200 µM and the IC50 was determined as 102 µM.
Turning to `CCOC(=O)c1ccc[c]([Sb](=[O])([OH])[OH])c1`, the EC50 was 4.9 µM and the IC50 was 398 µM.
Taken in the same sequence, the figures for `COc1ccc2ccc3c(CCN(C)C#N)cc4c(c3c2c1OC(C)=O)OCO4` were greater than 34.7 µM and greater than 34.7 µM.
On to `CCOC(=O)c1cc(Br)c(-c2cc(C)co2)[nH]1`, for which the EC50 is greater than 200 µM and the IC50 was greater than 200 µM.

Broadly, the EC50 is the concentration needed to bring the measured effect to its halfway point. What is called IC50 is the concentration that gives 50% inhibition. A low value points to greater potency in that assay.
